{"source": "paper PMC7901654", "about": "“Bioisosteric Discovery of NPA101.3, a Second-Generation RET/VEGFR2 Inhibitor Optimized for Single-Agent Polypharmacology” (Journal of Medicinal Chemistry, 2020)", "key": {"NIH3T3 RET/C634Y cells": {"system": "NIH3T3 RET/C634Y cells", "assay": "Phosphorylation and signalling Western blot in NIH3T3 RET/C634Y cells", "type": "cell-based", "settings": "10.0 nM, 2 h", "protocol": "Protein lysates were prepared according to standard procedures. Briefly, cells were lysed in a buffer containing 50 mM N-2-hydroxyethylpiperazine-N′-2-ethanesulfonic acid (HEPES; pH 7.5), 1% (v/v) Triton X-100, 150 mM NaCl, 5 mM EGTA, 50 mM NaF, 20 mM sodium pyrophosphate, 1 mM sodium vanadate, 2 mM phenylmethanesulfonyl fluoride (PMSF), and 1 μg/mL aprotinin. Lysates were clarified by centrifugation at 10000g for 15 min. […] Immune complexes were detected with the enhanced chemiluminescence kit (Amersham Pharmacia Biotech, Little Chalfont, U.K.). Anti-phospho-SHC (#Y317), which recognizes SHC protein when phosphorylated on Y317, was from Upstate Biotechnology Inc. (Lake Placid, NY). Anti-SHC (H-108) was from Santa Cruz Biotechnology (Santa Cruz, CA). Anti-MAPK (9101) and anti-phospho-MAPK (9102), specific for p42/44MAPK (ERK1/2) phosphorylated on Thr202/Tyr204, antibodies were from Cell Signaling Technologies (Danvers, MA). Anti-phospho-VEGFR2/KDR (2478), specific for VEGFR2/KDR phosphorylated on Tyr1175, and anti-VEGFR2/KDR (2479) were from Cell Signaling Technologies. Anti-phospho-p70S6K (9234), specific for p70S6K phosphorylated on Thr389, and anti-p70S6K (2708) were from Cell Signaling Technologies. […]"}, "[1]": {"assay": "LCMS plasma analysis (in vivo metabolism study)", "set-up": "species or system mouse", "settings": "10 mg/kg oral, mice, 1 h and 4 h after dosing, LC-MS", "protocol": "In vivo target (RET and VEGFR2) inhibition was studied by treating animals grafted with NIH3T3 RET/C634Y cells at different doses (0.3, 1, or 3 mg/kg/day p.o.) of NPA101.3 for 2 days and then performing Western blot analysis on protein extracts. […] Then, to determine antitumorigenic activity and to better distinguish RET- and VEGFR2-mediated effects, we tested NPA101.3 in nude mice transplanted with NIH3T3 cells transformed by either RET/C634Y or HRAS/G12V. Before tumors appeared, animals were treated daily with NPA101.3 (1.0, 3.0, or 10.0 mg/kg/day) or left untreated. […] Still, VEGFR2 inhibition was detected also in RAS-driven tumors, an effect that might explain the, albeit reduced, effect of the drug on their growth (Figure S13). Importantly, as predicted, no trace of NPA101.3 demethyl metabolites was detected after 1 or 4 h from oral dosing in mice (Figure S14). […]\nAfter thawing, cells were maintained in culture using minimum essential medium supplemented with 10% foetal bovine serum, 1% non-essential amino acids, 1% sodium pyruvate, 2mM L-glutamine, 1% pen-strep, 15μg/ml blasticidin and 100 μg/ml hygromycin. hERG channel expression induction was obtained by adding 10 μg/ml tetracycline 48 h before the experiment. […] Current amplitude was measured and […]\nSupplementary Figure S14: In vivo metabolism study. […] NPA101.3 drug peak was detected at 3.61 min (m/z = 529) at either time point. […]"}}}
{"smiles": "CC(C)(C)c1cc(NC(=O)Cc2ccc(-n3cnc4cc(-c5ccc(S(C)(=O)=O)cc5)ccc43)cc2)no1", "note": "[NPA101.3]", "values": [{"measurement": "phosphorylation of MAPK", "setting": "NIH3T3 RET/C634Y cells", "value": "attenuated"}, {"measurement": "phosphorylation of RET and SHC", "setting": "NIH3T3 RET/C634Y cells", "value": "almost completely inhibited"}, {"measurement": "demethyl metabolites in plasma", "setting": "[1]", "value": "no trace"}]}
